In ChEMBL document CHEMBL4483862, “Open-source discovery of chemical leads for next-generation chemoprotective antimalarials” (2018):

System: Plasmodium berghei
Test: Luciferase/luciferin-expressing antifolate-resistant parasites were used to infect a culture of HepG2 cells that were pre-incubated with compounds. Infected hepatocytes emit light due to the luciferase reaction. Assay results are presented as the percent inhibition of light emission compared to control. […]
Assay type: functional
Details: sporozoite; for IC90: read-out: LUCIFERASE INFECTION ASSAY - IC90

Row | Structure (SMILES) | IC90 [µM] | other results
1 | CC(C)(C)c1ccc(S(=O)(=O)Nc2ccc(O)c(Sc3nc4ccccc4s3)c2)cc1 | > 10 | IC50 (HEPG2TOX_HILL_SLOPE 0.314, HEPG2TOX_R_SQUARED 0.616, read-out: LUCIFERASE INFECTION ASSAY - IC50): > 10 µM
2 | CC(=O)Nc1cccc(-c2cc(NC=O)c3ncc(-c4ccc(C(C)=O)cc4)n3c2)c1 | > 8 | IC50 (HEPG2TOX_HILL_SLOPE 0.38, HEPG2TOX_R_SQUARED 0.804, PBLUC_HILL_SLOPE 0.536, PBLUC_R_SQUARED 0.0495, read-out: LUCIFERASE INFECTION ASSAY - IC50): > 8 µM
3 | c1ccc(-c2cn3c(-c4ccc5c(c4)OCO5)cnc3cn2)cc1 | > 10.5 | IC50 (HEPG2TOX_HILL_SLOPE 0.346, HEPG2TOX_R_SQUARED 0.507, PBLUC_HILL_SLOPE 2.83, PBLUC_R_SQUARED 0.466, read-out: LUCIFERASE INFECTION ASSAY - IC50): 9.02 µM
4 | CN(C)c1ccc(-c2cnc3cnc(-c4ccccc4N(C)C)cn23)cc1 | 0.0642 | IC50 (HEPG2TOX_HILL_SLOPE 0.323, HEPG2TOX_R_SQUARED 0.566, PBLUC_HILL_SLOPE 1.8, PBLUC_R_SQUARED 0.657, read-out: LUCIFERASE INFECTION ASSAY - IC50): 0.0189 µM
5 | CCN(Cc1ccc(OCc2ccccc2)cc1)C(=O)CN1CCc2cc(S(N)(=O)=O)ccc21 | > 10 | IC50 (HEPG2TOX_HILL_SLOPE 0.311, HEPG2TOX_R_SQUARED 0.495, read-out: LUCIFERASE INFECTION ASSAY - IC50): > 10 µM
6 | CCCc1cc(=O)n2ncc(-c3ccccc3)c2[nH]1 | 12.2 | IC50 (HEPG2TOX_HILL_SLOPE 0.383, HEPG2TOX_R_SQUARED 0.727, PBLUC_HILL_SLOPE 12.3, PBLUC_R_SQUARED 0.782, read-out: LUCIFERASE INFECTION ASSAY - IC50): 10.2 µM
7 | CCOc1ccccc1NC(=O)/C=C/c1nnc2c3ccccc3cnn12 | > 10 | IC50 (HEPG2TOX_HILL_SLOPE 0.359, HEPG2TOX_R_SQUARED 0.214, PBLUC_HILL_SLOPE 0.79, PBLUC_R_SQUARED 0.499, read-out: LUCIFERASE INFECTION ASSAY - IC50): 1.82 µM
8 | CC(C)Cc1ccc(C(C)c2nn3c(-c4cccnc4)nnc3s2)cc1 (configuration not stated) | 5.44 | IC50 (HEPG2TOX_HILL_SLOPE 0.365, HEPG2TOX_R_SQUARED 0.691, PBLUC_HILL_SLOPE 1.54, PBLUC_R_SQUARED 0.896, read-out: LUCIFERASE INFECTION ASSAY - IC50): 1.31 µM
9 | Clc1ccccc1C(CNc1ncnc2sccc12)N1CCCC1 (configuration not stated) | > 10 | IC50 (HEPG2TOX_HILL_SLOPE 0.371, HEPG2TOX_R_SQUARED 0.706, PBLUC_HILL_SLOPE 3.78, PBLUC_R_SQUARED 0.473, read-out: LUCIFERASE INFECTION ASSAY - IC50): 7.08 µM
10 | c1ccc2c(NCCNc3ncnc4ccccc34)cccc2c1 | 4.93 | IC50 (HEPG2TOX_HILL_SLOPE 0.364, HEPG2TOX_R_SQUARED 0.666, PBLUC_HILL_SLOPE 0.695, PBLUC_R_SQUARED 0.76, read-out: LUCIFERASE INFECTION ASSAY - IC50): 0.209 µM
11 | CNc1snc(C)c1C(=O)OCc1csc(-c2ccccc2)n1 | 1.26 | IC50 (HEPG2TOX_HILL_SLOPE 0.385, HEPG2TOX_R_SQUARED 0.759, PBLUC_HILL_SLOPE 1.19, PBLUC_R_SQUARED 0.693, read-out: LUCIFERASE INFECTION ASSAY - IC50): 0.2 µM
12 | CC(C)Cc1ccc(C(C)c2nn3c(-c4ccco4)nnc3s2)cc1 (configuration not stated) | 0.257 | IC50 (HEPG2TOX_HILL_SLOPE 0.343, HEPG2TOX_R_SQUARED 0.467, PBLUC_HILL_SLOPE 2.04, PBLUC_R_SQUARED 0.902, read-out: LUCIFERASE INFECTION ASSAY - IC50): 0.0873 µM
13 | CC(C(=O)Nc1cc([N+](=O)[O-])ccc1Cl)N(C)CC(=O)Nc1ccc(Cl)c(C(F)(F)F)c1 (configuration not stated) | > 10 | IC50 (HEPG2TOX_HILL_SLOPE 0.377, HEPG2TOX_R_SQUARED 0.303, read-out: LUCIFERASE INFECTION ASSAY - IC50): > 10 µM
14 | Cc1ccc(-n2c(C)cc(C(=O)CSc3nc(N)cc(N)n3)c2C)cc1C | 4.39 | IC50 (HEPG2TOX_HILL_SLOPE 0.381, HEPG2TOX_R_SQUARED 0.896, PBLUC_HILL_SLOPE 2.47, PBLUC_R_SQUARED 0.602, read-out: LUCIFERASE INFECTION ASSAY - IC50): 1.81 µM
15 | CC(=O)c1cccc(-c2cnc3ccc(-c4ccoc4)nn23)c1 | 6.77 | IC50 (HEPG2TOX_HILL_SLOPE 0.314, HEPG2TOX_R_SQUARED 0.72, PBLUC_HILL_SLOPE 2.12, PBLUC_R_SQUARED 0.552, read-out: LUCIFERASE INFECTION ASSAY - IC50): 2.41 µM
16 | CCOC(=O)c1sc(N)c(C#N)c1CSc1nnnn1-c1ccccc1 | > 10 | IC50 (HEPG2TOX_HILL_SLOPE 0.327, HEPG2TOX_R_SQUARED 0.288, read-out: LUCIFERASE INFECTION ASSAY - IC50): > 10 µM

Row | Structure (SMILES) | IC90 [µM] | other results
17 | CC1CN(CC(O)COCc2ccc(Cl)cc2)CCN1CC(O)COCc1ccc(Cl)cc1 (configuration not stated) | > 10 | IC50 (HEPG2TOX_HILL_SLOPE 0.385, HEPG2TOX_R_SQUARED 0.947, PBLUC_HILL_SLOPE 12.7, PBLUC_R_SQUARED 0.144, read-out: LUCIFERASE INFECTION ASSAY - IC50): 9.06 µM
18 | COc1ccc(-c2cnc3cnc(-c4ccccc4C)cn23)cc1 | 0.0475 | IC50 (HEPG2TOX_HILL_SLOPE 0.359, HEPG2TOX_R_SQUARED 0.561, PBLUC_HILL_SLOPE 8.88, PBLUC_R_SQUARED 0.713, read-out: LUCIFERASE INFECTION ASSAY - IC50): 0.0371 µM
19 | COc1ccc(OC)c(CCNc2nc3cnc(-c4ccccc4C)cc3n2C)c1 | 0.0474 | IC50 (HEPG2TOX_HILL_SLOPE 0.343, HEPG2TOX_R_SQUARED 0.532, PBLUC_HILL_SLOPE 5.82, PBLUC_R_SQUARED 0.631, read-out: LUCIFERASE INFECTION ASSAY - IC50): 0.0325 µM
20 | Nc1nc(N)nc(COC(=O)c2c3c(nc4ccccc24)/C(=C/c2c(F)cccc2Cl)CC3)n1 | > 10 | IC50 (HEPG2TOX_HILL_SLOPE 0.332, HEPG2TOX_R_SQUARED 0.762, PBLUC_HILL_SLOPE 7.86, PBLUC_R_SQUARED 0.0482, read-out: LUCIFERASE INFECTION ASSAY - IC50): > 10 µM
21 | Cc1sc2ncnc(Oc3ccc4ccccc4c3)c2c1-c1ccccc1 | > 10 | IC50 (HEPG2TOX_HILL_SLOPE 0.313, HEPG2TOX_R_SQUARED 0.61, PBLUC_HILL_SLOPE 2.74, PBLUC_R_SQUARED 0.421, read-out: LUCIFERASE INFECTION ASSAY - IC50): 6.76 µM
22 | COc1ccc(C(=O)N2CCN(c3ncnc4cc(Cl)ccc34)CC2)cc1 | > 10 | IC50 (HEPG2TOX_HILL_SLOPE 0.344, HEPG2TOX_R_SQUARED 0.575, PBLUC_HILL_SLOPE 18.9, PBLUC_R_SQUARED 0.0549, read-out: LUCIFERASE INFECTION ASSAY - IC50): 9.92 µM
23 | CCS(=O)(=O)N1CCC(C(=O)Nc2nc3ccc(Oc4ccccc4)cc3s2)CC1 | > 10 | IC50 (HEPG2TOX_HILL_SLOPE 0.324, HEPG2TOX_R_SQUARED 0.65, PBLUC_HILL_SLOPE 2.34, PBLUC_R_SQUARED 0.492, read-out: LUCIFERASE INFECTION ASSAY - IC50): 5.6 µM
24 | CC1=C2CCC(C)CC23C2C(=O)N(Cc4ccc(Cl)cc4)C(=O)C2C1C1C(=O)N(Cc2ccc(Cl)cc2)C(=O)C13 (configuration not stated) | > 5.71 | IC50 (HEPG2TOX_HILL_SLOPE 0.355, HEPG2TOX_R_SQUARED 0.414, PBLUC_HILL_SLOPE 1.68, PBLUC_R_SQUARED 0.433, read-out: LUCIFERASE INFECTION ASSAY - IC50): 3.28 µM
25 | Cc1oc2c(c1C(=O)N1CCN(CCO)CC1)C(=O)c1ccccc1C2=O | > 10 | IC50 (HEPG2TOX_HILL_SLOPE 0.333, HEPG2TOX_R_SQUARED 0.261, PBLUC_HILL_SLOPE 0.243, PBLUC_R_SQUARED 0.141, read-out: LUCIFERASE INFECTION ASSAY - IC50): 8.15 µM
26 | O=C(NC1CC1)c1ccc(-c2cn3c(-c4ccc(C(=O)NC5CC5)cc4)cnc3cn2)cc1 | > 7.54 | IC50 (HEPG2TOX_HILL_SLOPE 0.33, HEPG2TOX_R_SQUARED 0.326, PBLUC_HILL_SLOPE 6.32, PBLUC_R_SQUARED 0.0215, read-out: LUCIFERASE INFECTION ASSAY - IC50): > 7.54 µM
27 | CCN(CC)CCn1c(NC(=O)c2cccc3c[nH]nc23)nc2ccccc21 | > 10 | IC50 (HEPG2TOX_HILL_SLOPE 0.322, HEPG2TOX_R_SQUARED 0.707, PBLUC_HILL_SLOPE 3.59, PBLUC_R_SQUARED 0.259, read-out: LUCIFERASE INFECTION ASSAY - IC50): 6.09 µM
28 | Cc1csc2ncnc(N3CCN(C(=O)Nc4ccc(Cl)c(Cl)c4)CC3)c12 | > 7.81 | IC50 (HEPG2TOX_HILL_SLOPE 0.318, HEPG2TOX_R_SQUARED 0.0791, PBLUC_HILL_SLOPE 1.99, PBLUC_R_SQUARED 0.376, read-out: LUCIFERASE INFECTION ASSAY - IC50): > 7.81 µM
29 | O=C(Nc1nc2ccccn2c1C(=O)NC1CCCC1)c1ccccc1F | 4.76 | IC50 (HEPG2TOX_HILL_SLOPE 0.364, HEPG2TOX_R_SQUARED 0.251, PBLUC_HILL_SLOPE 7.71, PBLUC_R_SQUARED 0.78, read-out: LUCIFERASE INFECTION ASSAY - IC50): 3.58 µM
30 | CCc1nn2c(=O)cc(CSc3nccc(C)n3)[nH]c2c1-c1ccc(F)cc1 | > 8.34 | IC50 (HEPG2TOX_HILL_SLOPE 0.32, HEPG2TOX_R_SQUARED 0.345, PBLUC_HILL_SLOPE 2.6, PBLUC_R_SQUARED 0.743, read-out: LUCIFERASE INFECTION ASSAY - IC50): 4.67 µM
31 | FC(F)(F)Oc1ccc(-c2cnc3ccc(NCc4ccncc4)nn23)cc1 | 1.17 | IC50 (HEPG2TOX_HILL_SLOPE 0.34, HEPG2TOX_R_SQUARED 0.62, PBLUC_HILL_SLOPE 3.72, PBLUC_R_SQUARED 0.739, read-out: LUCIFERASE INFECTION ASSAY - IC50): 0.649 µM
